{"source": "paper PMC4931877", "about": "(The Journal of Pharmacology and Experimental Therapeutics, 2016)", "origin": "cited, not measured here", "tested_on": "γ-secretase", "conditions": "ref Fleisher et al., 2008; Coric et al., 2012; Doody et al., 2013; cited from earlier work", "data": [{"smiles": "CC(C)[C@H](O)C(=O)N[C@@H](C)C(=O)N[C@@H]1C(=O)N(C)CCc2ccccc21", "note": "[LY450139]", "values": [{"measurement": "outcome of mild-moderate AD clinical trials", "result": "Notch-related nonmelanoma skin cancers and/or progression and worsening of cognitive measures"}]}, {"smiles": "NC(=O)[C@@H](CCC(F)(F)F)N(Cc1ccc(-c2ncon2)cc1F)S(=O)(=O)c1ccc(Cl)cc1", "note": "[BMS-708163, (2R)-2-[(4-chlorophenyl)sulfonyl-[[2-fluoro-4-(1,2,4-oxadiazol-3-yl)phenyl]methyl]amino]-5,5,5-trifluoropentanamide]", "values": [{"measurement": "outcome of mild-moderate AD clinical trials", "result": "Notch-related nonmelanoma skin cancers and/or progression and worsening of cognitive measures"}]}]}
